Measured values as given in patent US20230382916A1, “HETEROARYL HETEROCYCLIC COMPOUNDS AND USES THEREOF” (HUTCHISON MEDIPHARMA LIMITED, priority 2020, published 2023).

Tests used:
[1] = test system: idiopathic thrombocytopenic purpura induced by anti-mouse CD41 antibodies; assay: Idiopathic thrombocytopenic purpura induced by anti-CD41 antibody in mice, level of platelets; assay type: in vivo; settings: 40 mg/kg oral single dose
Experimental: Male C57BL/6 mice were purchased from Shanghai Lingchang Biotechnology Co., Ltd. (certificate number 20180003011079, initial body weight of 18-20 grams), and were randomly grouped according to Table 4, with 8 mice in each group. […] When modeling, each mouse was intraperitoneally injected with 200 μL of PBS solution containing […] of anti-mouse CD41 antibodies (BD, Cat #: 553487, Lot #: 7026765).
Eight hours and twenty-four hours after modeling, the whole blood was collected and placed in a centrifuge tube coated with 10% citrate-phosphate-dextrose-adenine (CPDA), and the level of platelets (PLT) in the whole blood was measured by an XT-2000i (SYSMEX) automatic blood analyzer (Shanghai Laboratory Animal Research Centre Sino-British SIPPR/B & K Lab Animal Ltd).
The average level of platelets in peripheral blood was analyzed with Graphpad statistical software by one way ANOVA followed by Fisher LSD multiple comparison test, and the p value was calculated, wherein *p<0.05 indicated a statistically significant difference compared with the vehicle control group, **p<0.01 indicated a statistically extremely significant difference compared with the vehicle control group, and ##p<0.01 indicated a statistically extremely significant difference compared with the normal group.
RR %=(PLTtreatment−PLTmodel)/(PLTnaive−PLTmodel)×100%.

[2] = target: BTK recombinant protein (Homo sapiens (Human), UniProt Q06187); assay: Determination of biochemical BTK (Z'-LYTE kinase assay); settings: 32 μM ATP
Text: BTK recombinant protein: Invitrogen, Cat #PV3363;
Z′-LYTE® kinase test kit-tyrosine 1 peptide: Invitrogen, Cat #PV3190;
Z′-LYTE® biochemical assay employs a fluorescence resonance energy transfer (FRET)-based, coupled-enzyme format and is based on the differential sensitivity of phosphorylated and non-phosphorylated peptides to proteolytic cleavage. Both ends of the short peptide substrate are labeled with two fluorescent groups to form a FRET paired combination. In the primary reaction (the Kinase Reaction), the kinase transfers the γ-phosphate of ATP to a single […] residue on the short peptide substrate. In the secondary reaction (the development reaction), the non-phosphorylated short peptides were recognized and cleaved by a site-specific protease (the development reagent). Phosphorylated short peptides can resist such cleavage. Cleavage of short peptides can disrupt the donor (such as coumarin) and receptor fluorophores (fluorescein) on the short peptides, while the phosphorylated short peptides can maintain FRET. The calculation method of the ratio is as follows, and the ratio of the respective emission signals generated by the donor fluorophores emitted (after excitation at 400 nm) to the receptors is calculated. Emission signal ratio=emitted light by coumarin (445 nm)/emitted light by fluorescein (520 nm). If the FRET short peptide is phosphorylated (such as no kinase inhibitor), the emitted light ratio will remain in a lower level. If the FRET short peptide is non-phosphorylated (such as kinase inhibitor), the emitted light ratio will be in a higher level. In this way, the inhibitory effects of different compound inhibitors on BTK kinase activity would be distinguished.
The experiment was carried out according to the instructions of the Z′-LYTE® kinase test kit-tyrosine 1 peptide. Reagent preparation: 1.33× kinase buffer: 5× kinase buffer was diluted with water to 1.33× kinase buffer; an enzyme solution: the kinase was dissolved in 1.33× kinase buffer with the final working concentration being 3.32 nM; a short peptide solution: a short peptide stock solution (1 mM dissolved in DMSO) was dissolved in 1.33× kinase buffer with the final working concentration being 2 μM; Z′-LYTE Tyr01 phosphorylated short peptide solution, 0.6 μl of stock solution (1 mM dissolved in DMSO) was dissolved in 149.4 μl of 1.33× kinase buffer; an ATP solution: an ATP stock solution (10 mM aqueous solution) was dissolved in 1.33× kinase buffer with the final working concentration being 32 μM; a color-developing solution: color-developing solution B was dissolved in color-developing buffer with the final working concentration being 1× color-developing solution; 4× compound preparation: the compound was diluted in 3-fold gradient concentration to finally obtain 4% DMSO aqueous solution containing different concentrations of the compound, with the final working concentration being 3000, 1000, 333.33, 111.11, 37.04, 12.35, 4.12, 1.37 nM, 8 concentration points in total.
Specific steps of the experiment: In the experiment, there were three control groups, each with 8 replicate wells, which were C1 100% inhibition group (no ATP), C2 0% inhibition group (with ATP), and C3 100% phosphorylation group, respectively. 2.5 μl of serially diluted compound was added to each well of a 384-well plate, with double replicate wells, and 4% DMSO solution was added to wells C1, C2, and C3. After that, except for wells C3, 2.5 μl of BTK enzyme solution was added to each remaining well, which was left to stand at 4° C. for 30 minutes. After that, except for wells C3, 2.5 μl of short peptide solution was added to each well, and 5 μl of phosphorylated short peptide solution was added to each of wells C3. 2.5 μl of 1.33× kinase buffer was added to each of wells C1 and C3, and 2.5 μl of ATP solution was added to each of the remaining wells. The wells were centrifuged transiently, and the plate was shaken at 1000 rpm for 30 seconds to perform transient centrifuge. […]

BTK recombinant protein, sequence (Q06187 whole entry): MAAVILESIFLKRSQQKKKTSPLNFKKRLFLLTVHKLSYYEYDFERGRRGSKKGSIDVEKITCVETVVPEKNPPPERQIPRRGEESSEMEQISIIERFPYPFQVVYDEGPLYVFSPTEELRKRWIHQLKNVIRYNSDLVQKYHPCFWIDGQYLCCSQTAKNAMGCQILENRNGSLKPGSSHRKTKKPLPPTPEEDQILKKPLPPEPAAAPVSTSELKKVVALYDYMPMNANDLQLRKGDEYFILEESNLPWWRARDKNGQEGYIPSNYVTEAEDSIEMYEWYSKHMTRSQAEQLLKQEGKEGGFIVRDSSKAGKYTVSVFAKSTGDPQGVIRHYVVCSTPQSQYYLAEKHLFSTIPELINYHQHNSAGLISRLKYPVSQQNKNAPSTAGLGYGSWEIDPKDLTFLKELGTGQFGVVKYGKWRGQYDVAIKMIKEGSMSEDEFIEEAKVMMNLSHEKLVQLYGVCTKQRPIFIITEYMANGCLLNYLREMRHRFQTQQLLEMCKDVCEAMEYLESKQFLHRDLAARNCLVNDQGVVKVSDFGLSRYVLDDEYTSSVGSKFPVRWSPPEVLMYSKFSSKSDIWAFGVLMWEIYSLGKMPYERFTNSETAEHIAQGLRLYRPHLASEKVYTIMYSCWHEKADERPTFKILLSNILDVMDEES

| SMILES | recovery rate of platelets ([1]; 8 hours after modeling) | recovery rate of platelets ([1]; 24 hours after modeling) | IC50 [2] |
| --- | --- | --- | --- |
| CC(C)(/C=C(\C#N)C(=O)N1CCC[C@@H](n2nc(-c3ccc(Oc4ccccc4)cc3F)c3c(N)ncnc32)C1)N1CCN(C2COC2)CC1 [PRN1008, rilzabrutinib, reference compound] | 40% | 16% |  |
| C[C@H]1CN(C2COC2)C[C@H](C)N1c1ccc(Nc2cc(-c3ccnc(-n4ccn5c6c(c(F)c5c4=O)CCCC6)c3CO)cn(C)c2=O)nc1 [Compound 3] |  |  | 3 nM |
| C[C@H]1CN(C)C[C@H](C)N1c1ccc(Nc2cc(-c3ccnc(-n4ccn5c6c(cc5c4=O)CC(C)(C)C6)c3CO)cn(C)c2=O)nc1 [Compound 6, 2-(3′-(hydroxymethyl)-1-methyl-6-oxo-5-((5-((2S,6S)-2,4,6-trimethylpiperazin-1-yl)pyridin-2-yl)amino)-1,6-dihydro-[3,4′-bipyridin]-2′-yl)-7,7-dimethyl-7,8-dihydro-2H-cyclopenta[4,5]pyrrolo[1,2-a]pyrazin-1(6H)-one] |  |  | 7 nM |
